Assay results reported in ChEMBL document CHEMBL4038308, “Lipophosphonoxins II: Design, Synthesis, and Properties of Novel Broad Spectrum Antibacterial Agents” (J Med Chem, 2017).
Calls of active or inactive are those of the source.

Tests used:
Assay type in all cases: functional
Bacillus subtilis [1] = test: Antibacterial activity against Bacillus subtilis assessed as inhibition of DNA synthesis at 100 mg/L after 50 mins by [3H]thymidine incorporation assay
Bacillus subtilis [2] = test: Antibacterial activity against Bacillus subtilis assessed as inhibition of RNA synthesis at 100 mg/L after 50 mins by [3H]-uridine incorporation assay
Bacillus subtilis [3] = test: Antibacterial activity against Bacillus subtilis assessed as inhibition of peptidoglycan synthesis at 100 mg/L after 50 mins by [3H]-N-acetylglucosamine incorporation assay
Bacillus subtilis [4] = test: Antibacterial activity against Bacillus subtilis assessed as inhibition of plasma membrane lipids synthesis at 100 mg/L after 50 mins by [3H]-sodium acetate incorporation assay
Bacillus subtilis [5] = test: Antibacterial activity against Bacillus subtilis assessed as inhibition of protein synthesis at 100 mg/L after 50 mins by [35S]-methionine incorporation assay
Bacillus subtilis [6] = test: Antibacterial activity against Bacillus subtilis assessed as inhibition of DNA synthesis at 10 mg/L after 50 mins by [3H]thymidine incorporation assay
Bacillus subtilis [7] = test: Antibacterial activity against Bacillus subtilis assessed as inhibition of RNA synthesis at 10 mg/L after 50 mins by [3H]-uridine incorporation assay
Bacillus subtilis [8] = test: Antibacterial activity against Bacillus subtilis assessed as inhibition of peptidoglycan synthesis at 10 mg/L after 50 mins by [3H]-N-acetylglucosamine incorporation assay
Bacillus subtilis [9] = test: Antibacterial activity against Bacillus subtilis assessed as inhibition of plasma membrane lipids synthesis at 10 mg/L after 50 mins by [3H]-sodium acetate incorporation assay
Bacillus subtilis [10] = test: Antibacterial activity against Bacillus subtilis assessed as inhibition of protein synthesis at 10 mg/L after 50 mins by [35S]-methionine incorporation assay

Measured: inhibition

CCn1cc(C(=O)O)c(=O)c2ccc(C)nc21
active: Bacillus subtilis [1] | Bacillus subtilis [2] | Bacillus subtilis [3] | Bacillus subtilis [4] | Bacillus subtilis [5]

C/C=C/C/C=C/CCC(=O)[C@H]1O[C@H]1C(N)=O
active: Bacillus subtilis [1] | Bacillus subtilis [2] | Bacillus subtilis [3] | Bacillus subtilis [4] | Bacillus subtilis [5]

O=C(N[C@H](CO)[C@H](O)c1ccc([N+](=O)[O-])cc1)C(Cl)Cl
active: Bacillus subtilis [6] | Bacillus subtilis [7] | Bacillus subtilis [8] | Bacillus subtilis [9] | Bacillus subtilis [10]
